The assay addresses T1, glucocorticoid/Drosophila ecdysone chimeric receptor (UniProt P04150+P34021).
T1 construct: expressed in transfected cells; host or cells: maize suspension-culture protoplasts
T1 sequence (P04150+P34021 with tags, fused parts or gaps): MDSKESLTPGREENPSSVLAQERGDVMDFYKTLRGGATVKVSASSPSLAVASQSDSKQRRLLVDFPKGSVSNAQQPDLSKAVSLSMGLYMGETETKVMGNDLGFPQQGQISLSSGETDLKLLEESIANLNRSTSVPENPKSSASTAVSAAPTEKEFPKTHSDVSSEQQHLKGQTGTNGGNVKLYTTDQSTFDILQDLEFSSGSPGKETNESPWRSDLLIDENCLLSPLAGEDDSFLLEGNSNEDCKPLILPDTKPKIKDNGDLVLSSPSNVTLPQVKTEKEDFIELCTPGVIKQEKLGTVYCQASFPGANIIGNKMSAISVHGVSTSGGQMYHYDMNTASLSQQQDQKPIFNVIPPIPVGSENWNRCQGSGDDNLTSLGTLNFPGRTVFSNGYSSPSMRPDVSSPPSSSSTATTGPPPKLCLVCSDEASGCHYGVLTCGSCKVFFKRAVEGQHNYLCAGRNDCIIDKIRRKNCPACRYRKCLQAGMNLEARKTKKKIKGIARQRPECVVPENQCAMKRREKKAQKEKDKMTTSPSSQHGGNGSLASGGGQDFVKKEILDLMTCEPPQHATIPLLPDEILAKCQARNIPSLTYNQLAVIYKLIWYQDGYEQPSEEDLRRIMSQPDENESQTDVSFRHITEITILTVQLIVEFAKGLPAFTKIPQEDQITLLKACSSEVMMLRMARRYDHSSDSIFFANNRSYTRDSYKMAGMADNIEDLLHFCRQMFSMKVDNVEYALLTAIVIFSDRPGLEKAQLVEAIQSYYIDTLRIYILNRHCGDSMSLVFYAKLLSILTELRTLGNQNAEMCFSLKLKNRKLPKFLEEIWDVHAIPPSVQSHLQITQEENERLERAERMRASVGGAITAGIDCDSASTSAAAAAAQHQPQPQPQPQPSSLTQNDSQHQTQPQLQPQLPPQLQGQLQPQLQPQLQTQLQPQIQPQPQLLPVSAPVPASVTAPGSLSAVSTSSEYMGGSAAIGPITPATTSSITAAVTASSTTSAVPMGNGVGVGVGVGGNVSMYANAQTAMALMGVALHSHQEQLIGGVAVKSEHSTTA
Briefly: Maize protoplast GUS reporter assay with pMF6GREcRS and p221.9GRE6. The class given is cell-based. The note with it: maize protoplasts, reporter plus effector. Background: In a reporter assay the amount or activity of a reporter protein is the signal.

The values below come from US7183061B2, “Method of expressing Heliothis ecdysone receptor fusion protein” (Syngenta Limited, priority 1996, dated 2007).

Procedure: Protoplasts were isolated from a maize suspension culture derived from BE70×A188 embryogenic callus material, which was maintained by subculturing twice weekly in MS0.5mod. (MS medium supplemented with 3% sucrose, 690 mg/l proline, 1 g/l myo-inositol, 0.2 g/l casein acid hydrolysate, 0.5 mg/l 2,4-D, pH 5.6). Cells from suspensions two days post subculture were digested in enzyme mixture (2.0% Cellulase RS, 0.2% Pectolyase Y23, 0.5 M Mannitol, 5 mM CaCl2.2H2O, 0.5% MES, pH 5.6, ˜660 mmol/kg) using ˜10 ml/g cells, incubating at 25° C., dim light, rotating gently for ˜2 hours. The digestion mixture was sieved sequentially through 250 μm and 38 μm sieves, and the filtrate centrifuged at 700 rpm for 3.5 minutes, discarding the supernatant. The protoplasts were resuspended in wash buffer (0.358 M KCl, 1.0 mM NH4NO3, 5.0 mM CaCl2.2H2O, 0.5 mM KH2PO4, pH 4.8, ˜670 mmol/kg) and pelleted as before. This washing step was repeated. The pellet was resuspended in wash buffer and the protoplasts were counted. Transformation was achieved using a Polyethylene glycol method based on Negrutiu et al. Protoplasts were resuspended at 2×10^6/ml in MaMg medium (0.4 M Mannitol, 15 mM MgCl2, 0.1% MES, pH 5.6, ˜450 mmol/kg) aliquotting 0.5 ml/treatment (i.e. 1×10^6 protoplasts/treatment). Samples were heat shocked at 45° C. for 5 minutes then cooled to room temperature. 10 μg each of p221.9GRE6 and pMF6HR1PAT (GR) (1 mg/ml)/treatment were added and mixed in gently, followed by immediate addition of 0.5 ml warm (˜45° C.) PEG solution (40% PEG 3,350 MW in 0.4 M Mannitol, 0.1 M Ca(NO3)2, pH 8.0), which was mixed in thoroughly but gently. Treatments were incubated at room temperature for 20–25 minutes, then 5 ml 0.292 M KCl (pH 5.6, ˜530 mmol/kg) was added step-wise, 1 ml at a time, with mixing. The treatments were incubated for a further 10–15 minutes prior to pelleting the protoplasts by centrifuging as before. […] Protein concentrations of tissue homogenates were determined by the Bio-Rad protein assay (Bradford, 1976). […]

`CC(C)CC[C@@H](O)[C@](C)(O)[C@H]1CC[C@@]2(O)C3=CC(=O)[C@]4(O)C[C@@H](O)[C@@H](O)C[C@]4(C)[C@H]3[C@H](O)C[C@]12C` [Muristerone A]: the marker gene activity result (100 μM) was “significant elevation of marker gene activity”.
Regarding `CCc1ccc(C(=O)NN(C(=O)c2cc(C)cc(C)c2)C(C)(C)C)cc1` [RH5992, 3,5-dimethylbenzoic acid 1-1(1,1-dimethylethyl)-2(4-ethylbenzoyl)hydrazide], the “chemical induced reporter gene activity / induced levels of expression” value (concentration not given) is “no chemical induced reporter gene activity”.
